According to US20120035265A1, “COMPOSITIONS, METHODS, AND DEVICES FOR THE TREATMENT OF DYSMENORRHEA” (MediciNova, Inc., priority 2010, published 2012):
Like-named read-outs stand apart in the source and are kept apart here.

System: uterine muscle isolated from pregnant rats
Test: PG F2α-induced contraction of uterine muscle isolated from pregnant rats
Type: cell-based, rat
Conditions: Rattus norvegicus, contraction induced with 5 μg/mL of PG F2α, mean ± standard error of 10 samples
Procedure: After SD-strain rats on Day 17 of pregnancy were exsanguinated to death, the uterus was isolated to prepare up to 8 myometrial strips (about 4 mm×10 mm) per animal in the direction of the longitudinal muscle while avoiding the adhesion to the placenta. Each strip was suspended in an organ bath containing 10 mL of a modified Locke-Ringer solution at […] (aerated with 95% O2+5% CO2 gas) with a load of about 1.0 g. After the suspended sample became stable for static tension, 5 μg/mL of PG F2α or 1 mU/mL of oxytocin was added to induce contraction. After the sample was allowed to stand for at least 30 minutes to confirm stable rhythmic contraction for frequency and amplitude, the test, control, or positive control substance solution was added cumulatively at intervals of 5 minutes. After the treatment was completed, 1×10^−5 mol/L of forskolin was added to obtain maximal relaxation. The contractile force of the uterine sample was delivered via a force displacement transducer to a strain pressure amplifier and recorded on a Rectigraph.
Considering the sum of the uterine contraction for 5 minutes before treatment as 100%, the response rate to each concentration of the test, control, or positive control substance solution was calculated from the sum of uterine contraction after treatment for both PG F2α and oxytocin induced contraction. Then, the response rates obtained were used to prepare a concentration-response curve for each sample. The maximum relaxation obtained by adding forskolin was considered as a baseline. Variable points (peaks) with amplitude (tension) of […] or lower were excluded from analysis. Samples showing any of the following events were not used for the study or excluded from analysis.
Microsoft® Excel 2000 (Microsoft Corp.) was used to sum up and calculate data and prepare tables and figures. Using a concentration-response curve prepared for each sample (X axis: log value of the concentration of the substance added, Y axis: response rate), a negative log value (pEC50) of the concentration that inhibited the uterine contraction by 50% (EC50) was calculated from a straight line connecting the 2 concentrations just above and below 50%, and then converted to EC50 (unit: mol/L).

CN(C)C(=O)COc1ccc2c(c1)C[C@@H](NC[C@H](O)c1ccc(O)c(CCO)c1)CC2 [MN-221, (−)-bis(2-{[(2S)-2-({(2R)-2-hydroxy-2-[4-hydroxy-3-(2-hydroxyethyl)phenyl]ethyl}amino)-1,2,3,4-tetrahydronaphthalen-7-yl]oxy}-N,N-dimethyl-acetamide) monosulfate]
EC50 (read-out: EC50): 66.4 ± 19.3 nM
EC50 (read-out: pEC50 (converted)): 51.3 nM
